Assay results as given in paper PMC9603750, “Chalcone-Acridine Hybrid Suppresses Melanoma Cell Progression via G2/M Cell Cycle Arrest, DNA Damage, Apoptosis, and Modulation of MAP Kinases Activity” (International Journal of Molecular Sciences, 2022).

Tests used:
Assay in all cases: MTT assay (metabolic activity)
BLM = format: cell-based, human; conditions: Homo sapiens; BLM, 72 h incubation
Description: (§1) Cell lines A2058 (human melanoma lymph node metastasis, cat. 91100402) from ECACC (Public Health England, Salisbury, UK) and BLM (human melanoma lung metastasis a gift from prof. K. Smetana, Institute of Anatomy, Charles University in Prague) were cultured in a medium consisting of high glucose Dulbecco’s Modified Eagle’s Medium (DMEM) and sodium pyruvate (GE Healthcare, Piscataway, NJ, USA). The growth medium was supplemented with a 10% fetal bovine serum (FBS) and antibiotic/antimycotic solution 1 × HyClone™ (GE Healthcare, Chicago, IL, USA). The MCF-10A (human mammary epithelial cells) cell line was cultured in a medium consisting of high glucose Dulbecco’s Modified Eagle’s Medium F12 (DMEM/F12) (Biosera, Kansas City, MO, USA). The growth medium was supplemented with a 10% FBS, antibiotic/antimycotic solution 1 × HyClone™ (GE Healthcare, Chicago, IL, USA), epidermal growth factor (EGF) (20 ng/mL final), hydrocortisone (0.5 μg/mL final) and insulin (10 μg/mL final) (Sigma-Aldrich Chemie, Steinheim, Germany). Cells were cultured in humidified air at 37 °C with atmosphere containing 5% CO2.
(§2) The half-maximal inhibitory concentration values (IC50) and metabolism inhibition of tested synthetic chalcone derivatives were determined by MTT (3-(4,5-di-methylthiazol-2-yl)2,5-diphenyltetrazolium bromide) colorimetric assay (Sigma-Aldrich Chemie, Steinheim, Germany). Tested cell lines were seeded at a density of 5 × 10^3 cells/well in 96-well culture plates. After 24 h, the tested chalcones in concentrations of 100, 50 and 10 μmol/L were added and incubation proceeded for the next 72 h. In the next step, 10 μL of MTT (5 mg/mL) was added to each well containing cells and incubated for another 4 h at 37 °C during which MTT was metabolized to insoluble formazan in cells. After 4 h, 100 μL of a 10% sodium dodecyl sulphate (SDS) was added to each well and another 24 h were allowed for the formazan crystals to dissolve. The metabolic activity of cells was evaluated by measuring the absorbance at wavelength 540 nm using the automated Cytation™ 3 Cell Imaging Multi-Mode Reader (Biotek, Winooski, VT, USA). Three independent analyses were performed.

A2058 = format: cell-based, human; conditions: Homo sapiens; A2058, 72 h incubation
Description: as §1, §2

MCF-10A = format: cell-based; conditions: Homo sapiens; MCF-10A noncancer cell line, 72 h incubation
Description: as §1, §2

SMILES | IC50 (BLM) | IC50 (A2058) | IC50 (MCF-10A)
CC(C)COc1[nH]c2ccccc2c1/C=C/C(=O)c1ccccc1F [ZKCH-11G, (2E)-1-(2-fluorophenyl)-3-[2-(2-methylpropoxy)-1H-indol-3-yl]prop-2-en-1-one] | 39.5 ± 3.9 µM | 40 ± 1.37 µM | 51.3 ± 3.94 µM
CCOc1[nH]c2ccccc2c1/C=C/C(=O)c1ccccc1F [ZKCH-11C, (2E)-3-(2-ethoxy-1H-indol-3-yl)-1-(2-fluorophenyl)prop-2-en-1-one] | 38.55 ± 0.06 µM | 41.6 ± 0.73 µM | > 100 µM
CCCCOc1[nH]c2ccccc2c1/C=C/C(=O)c1ccccc1F [ZKCH-11F, (2E)-3-(2-butoxy-1H-indol-3-yl)-1-(2-fluorophenyl)prop-2-en-1-one] | 47.7 ± 1.49 µM | 45.8 ± 2.54 µM | > 100 µM
COn1cc(/C=C/C(=O)c2ccccc2F)c2ccccc21 [ZKCH-11A, (2E)-1-(2-fluorophenyl)-3-(1-methoxy-1H-indol-3-yl)prop-2-en-1-one] | 35.3 ± 6.1 µM | 31.9 ± 0.95 µM | 85 ± 2.19 µM
CC(C)Oc1[nH]c2ccccc2c1/C=C/C(=O)c1ccccc1F [ZKCH-11E, (2E)-1-(2-fluorophenyl)-3-[2-(propan-2-yloxy)-1H-indol-3-yl]prop-2-en-1-one] | 33.8 ± 2.14 µM | 37.3 ± 2.28 µM | 44.7 ± 4.96 µM
O=C(/C=C/c1c[nH]c2ccccc12)c1ccccc1F [ZKCH-11H, (2E)-1-(2-fluorophenyl)-3-(1H-indol-3-yl)prop-2-en-1-one] | 40.9 ± 2.62 µM | 42.4 ± 2.98 µM | 60.7 ± 3.09 µM
